Measured values as given in US5786332A, “Cytokine restraining agents and methods of use in pathologies and conditions associated with altered cytokine levels” (Trega Biosciences, Inc., priority 1995, dated 1998).

Tested on: Balb/c mice
Experiment: Arachidonic acid-induced ear swelling
Type: in vivo
Settings: 100 μg/mouse IP 30 min before AA; 60 min after AA
Method: Experiments were performed using female Balb/c mice weighing 18-23 grams. Saline or 100 μg EX-2 or EX-3 was administered IP, 30 min prior to topical application of arachidonic acid (AA). A 10 μl pipet was used to apply 10 μl AA solution (100 mg/ml ethanol; Calbiochem-Novabiochem; San Diego Calif.) to the inner and outer surfaces of the right ear of each mouse. Ten μl ethanol, alone, was applied to the inner and outer surface of the left ear of each mouse.
Ear thickness was measured with a hand-held spring loaded caliper immediately before and 60 min after AA application. Increase in ear thickness was calculated by subtracting the change observed in the control ear from the change observed in AA-treated ear. The value for each group (saline and control) is the average of the swelling observed in the individual mice in each group. The percent reduction of swelling is based on the swelling observed in the saline control group.

## Ac-Nle-Gln-His-(D)Phe-Arg-(D)Trp-Gly-NH2 [EX-2]
  Reduction in arachidonic acid-induced Ear Swelling: 72%
